Data taken from patent publication US20110281814A1, “METHODS AND COMPOSITIONS FOR TREATING BREAST CANCER” (Genzyme Corporation, priority 2009, published 2011).
Like-named read-outs stand apart in the source and are kept apart here.

Experiments:
[1] = system: breast cancer; conditions: mouse models of breast cancer; literature; cited from earlier work
[2] = system: established 4T1 tumors
Description: The 4T1 cell line (available from the […], Manassas, Va.) was derived from a spontaneously arising BALB/c mammary tumor and is commonly used as a syngeneic mouse model of metastatic breast cancer. When introduced orthotopically, the 4T1 line grows rapidly at the primary site and forms metastases in lungs, liver, bone and brain over a period of 3-6 weeks. When introduced intravenously or arterially, metastases are apparent in the same organs after 1-2 weeks. The rapid and efficient metastasis to organs affected in human breast cancer makes the 4T1 model an excellent mouse model for the study of metastatic progression of breast cancer in humans.
Three groups of 6- to 8-week-old SCID mice (6 animals each) were injected subcutaneously with 2×10^5 4T1 cells. At the start of dosing (about 14 days post-injection), the tumor volume was approximately 100 mm^3.
The size of the tumors was measured approximately every four days, beginning on day 10 post-injection. Animals were euthanized when the tumor volume reached approximately 1000 mm^3. […] The time course of the average tumor volume is plotted for each experimental group in FIG. 4A.

[3] = system: MDA-MB-231 tumors; conditions: for potentiation of the effect of doxorubicin on tumor growth: three weeks from day 28, vs doxorubicin alone, FIG. 5
Experimental: Four groups of 6- to 8-week-old SCID mice (6 animals each) were injected subcutaneously with 1×10^6 MDA-MB-231 cells. At the start of dosing (about 28 days post-injection), the tumor volume was approximately 100 mm^3. Beginning approximately 28 days after the injection, Groups 2-4 were administered intraperitoneal injections of doxorubicin once a week (Monday) for three weeks at 2 mg/kg body weight.
The size of the tumors was measured approximately every six days, beginning on day 21 post-injection. Animals were euthanized when the tumor volume reached approximately 1000 mm^3. The time course of the average tumor volume is plotted for each experimental group in FIG. 5.

[4] = system: MDA-MB-231 tumors
Experimental: Three groups of 6- to 8-week-old SCID mice (6 animals each) were injected subcutaneously with 2×10^6 MDA-MB-231 cells. At the start of dosing (about 14 days post-injection), the tumor volume was approximately 100 mm^3. Beginning approximately 14 days after the injection, Groups 2 and 3 were administered intraperitoneal injections of doxorubicin once a week (Monday) for the duration of the study at 1 mg/kg body weight.
The size of the tumors was measured approximately every three days, beginning on day 21 post-injection. Animals were euthanized when the tumor volume reached approximately 1000 mm^3. The time course of the average tumor volume is plotted for each experimental group in FIG. 6A.

[5] = system: SDF-1α/CXCL12-mediated transactivation of HER2/neu; conditions: MDA-MB-361 breast cancer cells, in vitro; Cabioglu et al. 2005; cited from earlier work
[6] = system: murine 4T1 cells; conditions: Smith et al. 2004, cited from earlier work
[7] = disclosed in PCT Pub. No. WO 00/045814; cited from earlier work
[8] = system: MDA-MB-231 human breast cancer cells admixed with human mesenchymal stem (MSC) cells; assay: Efficacy of AMD3465 in MDA-MB-231+MSC breast cancer model (Example 1); format: in vivo, SCID mice; conditions: vs PBS control, FIG. 1
Experimental: The MSC cells provide stromal support to the MDA-MB-231 cells and enhance tumor growth and metastasis via SDF-1α/CXCL12 and RANTES pathways.
Group 2 was given intraperitoneal injections of anti-human SDF-1α/CXCL12 monoclonal antibody three times a week (Monday, Wednesday and Friday) for six weeks at 100 μg per animal.

[9] = system: MDA-MB-231 cells admixed with MSC cells; conditions: presence of MSC cells, FIG. 2A
Experimental: (§1) Six groups of 6- to 8-week-old SCID mice (6 animals each) were injected subcutaneously with 1×10^6 MDA-MB-231 cells. Groups 4-6 were further injected with 1×10^6 MSC cells admixed with the MDA-MB-231 cells.
(§2) The size of the tumors was measured approximately every five days, beginning on day 15 post-injection. Animals were euthanized when the tumor volume reached approximately 1000 mm^3. The time course of the average tumor volume is plotted for each experimental group in FIGS. 2A and 2B.

[10] = system: MDA-MB-231 cells; conditions: AMD3465 5 or 10 mg/kg i.p. MWF from 7 days post-injection; absence of MSC cells; FIG. 2B
Experimental: as §1, §2

[11] = system: established MDA-MB-231 tumors; conditions: for rate of tumor growth: FIG. 3A; for mean survival (Kaplan-Meier): FIG. 3B
Experimental: Four groups of 6- to 8-week-old SCID mice (8 animals each) were injected subcutaneously with 1×10^6 MDA-MB-231 cells. At the start of dosing (about 21 days post-injection), the tumor volume was approximately 100 mm^3.
The size of the tumors was measured approximately every five days, beginning on day 21 post-injection. Animals were euthanized when the tumor volume reached approximately 1000 mm^3. The time course of the average tumor volume is plotted for each experimental group in FIG. 3A.

[12] = AMD3100 1.25 mg/kg s.c. MWF for two weeks, FIG. 4A
[13] = AMD3100 […] + doxorubicin 2 mg/kg
[14] = AMD3100 […] + doxorubicin 1 mg/kg

TN14003
metastasis [1]: reduce metastasis
primary tumor growth [1]: reduce primary tumor growth

c1cc(CN2CCCNCCNCCCNCC2)ccc1CN1CCCNCCNCCCNCC1 [AMD3100]
leveling off of tumor growth [2, 12]: largely leveled off by day 26 post-injection
onset of tumor growth [2, 12]: delayed by approximately one week
rate of tumor growth [2, 12]: significantly decreased the rate of tumor growth
mean survival (Kaplan-Meier) ([2]; AMD3100 1.25 mg/kg, FIG. 4B): increased the mean survival
potentiation of the effect of doxorubicin on tumor growth ([3]; AMD3100 1.25 mg/kg s.c. MWF + doxorubicin 2 mg/kg i.p. weekly): not at 1.25 mg/kg
leveling off of tumor growth [3, 13]: leveled off by day 92 post-injection
onset of tumor growth [3, 13]: delayed by several weeks
potentiation of the effect of doxorubicin on tumor growth ([3]; AMD3100 […] s.c. MWF + doxorubicin 2 mg/kg i.p. weekly): potentiated the effect of 2 mg/kg doxorubicin on the tumor growth
leveling off of tumor growth [4, 14]: leveled off by day 50 post-injection
onset of tumor growth [4, 14]: delayed by about two weeks
rate of tumor growth compared to doxorubicin alone [4, 14]: significantly (p=0.04) decreased
mean survival (Kaplan-Meier) compared to doxorubicin alone ([4]; AMD3100 […] + doxorubicin 1 mg/kg, FIG. 6B): significantly (p=0.07) increased the mean survival
potentiation of the effect of doxorubicin on tumor growth ([4]; AMD3100 […] s.c. MWF + doxorubicin 1 mg/kg i.p. weekly, duration of study from day 14, FIG. 6A): significantly potentiated the effect of 1 mg/kg doxorubicin on the tumor growth
SDF-1α/CXCL12-mediated transactivation of HER2/neu [5]: inhibit
growth onset of 4T1 cells in the lung [6]: significantly delayed the growth onset
overall survival ([6]; mice with experimental lung metastases): did not appear to improve overall survival
white blood cell count [7]: increasing the white blood cell count

c1ccc(CNCc2ccc(CN3CCCNCCNCCCNCC3)cc2)nc1 [AMD3465]
rate of tumor growth ([8]; AMD3465 5 mg/kg i.p. MWF for six weeks from 48 hours post-injection): significantly (p=0.07) decreased the rate of tumor growth
rate of tumor growth ([8]; AMD3465 10 mg/kg i.p. MWF for six weeks from 48 hours post-injection): not at 10 mg/kg
rate of tumor growth ([9]; AMD3465 5 mg/kg i.p. MWF from 7 days post-injection): significantly (p=0.024) decreased the rate of tumor growth
rate of tumor growth ([9]; AMD3465 10 mg/kg i.p. MWF from 7 days post-injection): not at 10 mg/kg
rate of tumor growth [10]: no statistically significant effect
rate of tumor growth ([11]; AMD3465 5 mg/kg i.p. MWF from about 21 days post-injection): not at 5 or 10 mg/kg
mean survival (Kaplan-Meier) ([11]; AMD3465 5 mg/kg): not at 5 or 10 mg/kg
rate of tumor growth ([11]; AMD3465 10 mg/kg i.p. MWF from about 21 days post-injection): not at 5 or 10 mg/kg
mean survival (Kaplan-Meier) ([11]; AMD3465 10 mg/kg): not at 5 or 10 mg/kg
